Test results: a melting point compilation (Tetko et al.; mined from patent text by program, amines drawn as free bases though some values may be those of a salt)

Structure (SMILES)	melting point [°C]
COc1ccc2ccc3c(c2c1)CC(NC(C)=O)CO3 (stereo not drawn)	186
CCCCc1nc2c(=O)[nH]ccc2n1Cc1ccc(-c2ccccc2C#N)cc1	179
CC1CCC(C(=O)N(C)C)=C2NC=C(C(N)=O)C(=O)N21 (stereo not drawn)	220
CC1=CCCC2C1(C)CCC(C)C2(C)CC1=CC(=O)C=CC1=O (stereo not drawn)	62 to 64
CC(Cl)(Cl)C(NC(=O)c1ccc(Cl)cc1)NC(=NC#N)Nc1ccc(C(F)(F)F)nc1 (stereo not drawn)	204 to 205
Cn1nc(Nc2cc(-c3ccc(F)c(-c4c(C(N)=O)sc5c4C(O)C(C)(C)C5)c3)nn(C)c2=O)cc1CN1CCC1 (stereo not drawn)	110 to 111
CC(C)Oc1cccc2c1C(=NNc1ccc(S(N)(=O)=O)cc1)C(=O)N2	> 250
O=C(c1ccc(Cl)c([N+](=O)[O-])c1)c1ccc(F)cc1F	90.5
CCCC(C)NC1=NS(=O)(=O)c2cc(Cl)c(Cl)cc2N1 (stereo not drawn)	217 to 220
CCOC(=O)[C@H]1CCC(=O)[C@@H](n2nc(-c3c(-c4ccccc4)nn4ccccc34)ccc2=O)C1 (relative stereo)	160 to 162
CC(=N)Nc1cccc(C(C)O)c1 (stereo not drawn)	132 to 135
CSC(=C[N+](=O)[O-])NCCSCc1ccco1	68 to 70
O=[N+]([O-])c1ccc(-c2nc(-c3ccco3)no2)c(Cl)c1	124 to 125
COc1ncc(C=O)cc1Cl	152
COc1ccc(S(=O)(=O)C2(C(=O)O)CCN(CCc3ccccc3)CC2)cc1	208
Cc1ccc(N(c2ccc(C)cc2)c2c(C)cc(-c3cc(C)c(N(c4ccc(C)cc4)c4ccc5ccc6cccc7ccc4c5c67)c(C)c3)cc2C)cc1	198 to 199
O=C(Oc1cc(F)ccc1[N+](=O)[O-])c1cc2ccccc2oc1=O	219 to 223
N#Cc1ccc(N2CCC(O)CC2)c2ccccc12	126 to 127
Cn1cnc(S(=O)(=O)NCCCCCCNS(=O)(=O)c2cn(C)cn2)c1	153 to 154
CCCc1ccc(S(=O)(=O)Nc2ccc(OC)nc2)cc1	93 to 94
CCCCc1c(OCCN2CCOCC2)c2c(OCCN3CCOCC3)cc(OCCN3CCOCC3)cc2oc1=O	131
O=CC1c2ccccc2C(C=O)c2cc(Cl)ccc21 (stereo not drawn)	113 to 115

Results, then the compound that gave them:

melting point [°C]	Structure (SMILES)
147 to 148	Cc1cnc(C2=NC(C)(C(C)C)C(=O)N2)c(C(O)c2ccc(C)s2)c1 (stereo not drawn)
124 to 126	COc1ccc(-c2cc(CN3CCN(C)CC3)c(=O)n(CC=Cc3ccc(Cl)cc3)n2)cc1F
131 to 132	O=C(NCc1cccs1)n1cc(F)c(=O)[nH]c1=O
105 to 106	CN1C(=O)SCC1C(=O)NCCO[N+](=O)[O-] (stereo not drawn)
165 to 168	O=C1N[C@H](C(=O)O)CSCCCCCCCCC1CS (stereo partly drawn)
142 to 143	COC(=O)[C@@H](Cc1ccccc1)NC(=O)OCc1cc2cc(-c3ccccc3)ccc2[nH]1
177 to 179	Cc1c(CC(=O)O)c2cc(O)ccc2n1C(=O)c1ccc(Cl)c(Cl)c1
242	O=S(=O)(c1ccccc1)n1c2ccc(Br)cc2c2cc(Cl)cnc21
267 to 275	CC1CC1n1cc(C(=O)O)c(=O)c2cc(F)c(N3CCC(N)C3)c(F)c21 (stereo not drawn)
242	Cc1cc(C)cc(C(=O)c2ccc(O)c(CC(=O)O)c2)c1
144 to 146	Cn1cc(C(=O)NCc2ccc(Cl)cc2)c(=O)c2cc(CN3CCOCC3)cc(C#CCN3CCC(O)C3)c21 (stereo not drawn)
52 to 54	CCOC(=O)Cc1sc(Sc2cc(C(=O)OC)ccn2)nc1C
149 to 151	O=C(O)c1ccccc1C(=O)NNC(=S)Nc1ccccc1
95.2 to 97	CCN(c1ccc(OCc2ccc(OC(F)(F)F)cc2)cc1)C1CCN(c2ccc(OC[C@H]3CCn4cc([N+](=O)[O-])nc4O3)cc2)CC1
157 to 159	O=C(OCCOc1ccc2ncnn2n1)C1CN(C(c2ccccc2)c2ccccc2)CCN1 (stereo not drawn)
101	COc1cccc(Oc2ccc(C(=O)N(C(C)C)C3CCCCC3)cc2)c1
